From patent publication US20250101052A1, “COMPOUND FOR EGFR KINASE INHIBITOR, COMPOSITION, AND USE THEREOF” (INNOVATION INSTITUTE FOR ARTIFICIAL INTELLIGENCE IN …, priority 2021, published 2025) come the findings set out here.

The target in data set [1] is EGFR^L858R/T790M/C797S kinase (Homo sapiens (Human), UniProt P00533, C797S/L858R/T790M). The data set is described as follows: EGFR^L858R/T790M/C797S kinase inhibitory activity experiment. In kind it is biochemical. The following applies: in vitro. As for the experimental part:
EGFRL^858R/T790M/C797S kinase inhibitory activity experiment: The compounds of the present invention have excellent in-vitro inhibitory activity against EGFR^L858R/T790M/C797S kinase
• Centrifuge (manufacturer: Eppendorf, model: 5430) • Microplate reader (manufacturer: Perkin Elmer, model: Caliper EZ ReaderII) • Echo 550 (manufacturer: Labcyte, model: Echo 550) • Experimental Method • Compound preparation: • A 10 mM storage solution was prepared.
(1) 1×Kinase buffer was prepared.
(2) Preparation of concentration gradient of compound: The tested compound has a test concentration starting from 1 μM, diluted 10 times, with 10 concentrations, and subjected to single-well or multi-well detection. The compound was diluted to a 100% DMSO solution with a final concentration of 100 times in a 384 source plate. […] of the compound at a final concentration of 100 times was transferred to the target plate 384-well-plate using the pipette Echo 550.
(3) A kinase solution with a final concentration of 2.5 times was prepared using 1× Kinase buffer.
(4) 10 μL of the kinase solution with the final concentration of 2.5 times was added to a compound well and a positive control well, respectively; 10 μL of 1×Kinase buffer was added to a negative control well.
(5) Centrifugation was conducted at 1000 rpm for 30 seconds, and the reaction plate was shaken and mixed well, and incubated at a room temperature for 10 minutes.
(6) A mixed solution of ATP with a final concentration of 5/3 times and Kinase substrate 22 was prepared using 1×Kinase buffer.
(7) A mixed solution of 15 μL of ATP with a final concentration of 5/3 times and a substrate was added for initial reaction.
(8) The 384-well-plate was centrifuged at 1000 rpm for 30 seconds, shaken and mixed well, and incubated at a room temperature for 60 minutes.
(9) 30 μL of a termination detection solution was added to stop the kinase reaction. Centrifugation was conducted at 1000 rpm for 30 seconds. Shaking and mixing well were conducted.
(10) The conversion rate was read using Caliper EZ Reader.
where Conversion %_sample is the conversion rate reading of the sample; Conversion %_min: the average value of negative control wells, representing the conversion rate reading of wells without enzyme activity; Conversion %_max: the average value of positive control wells, representing the conversion rate reading of wells without compound inhibition; % Inhibition represents the inhibition rate.
Fitting of Dose-Response Curve
Using the log value of concentration as the X-axis and the percentage inhibition rate as the Y-axis, the dose-response curve was fitted using the log(inhibitor) vs. response —Variable slope of the analysis software GraphPad Prism 5 to obtain the IC50 value of each compound on enzyme activity.

The test system of another data set is BaF3-EGFR^WT cells. In words: BaF3 cell proliferation inhibition experiment (CCK-8). In kind it is cell-based. The following applies: Mus musculus, BaF3; cell proliferation, 72 hours; read-out: BaF3-EGFR^WT (IC50 nM). The procedure: (§1) A. Cell line: BaF3 cells with stable overexpression of wild-type genes are named BaF3-EGFR^WT, and BaF3 cells with stable overexpression of EGFR^L858R/T790M/C797S EGFR^del19/T790M/C797S EGFR^L858R/C797S and EGFR^del19/C797S mutant genes are named BaF3-EGFR^L858R/T790M/C797S BaF3-EGFR^del19/T790M/C797S BaF3-EGFR^L858R/C797S and BaF3-EGFR^del19/C797S cells, respectively. Mediums:
(§2) a) The medium was preheated in a 37° C. water bath.
(§3) b) The cryopreservation tube was taken from the liquid nitrogen tank, quickly placed in a 37° C. water bath, and melted completely within 1 minute.
(§4) c) The cell suspension was transferred to a 15 mL centrifuge tube containing a 10 mL medium and centrifuged at 1000 rpm for 4 minutes.
(§5) d) The supernatant was discarded, the cells were resuspended in a 1 mL medium and transferred to a […] culture dish containing a 10 mL medium, 20% serum and 50 ng/mL EGF were administered to the first-generation medium, and culture was conducted in a 37° C. and 5% CO2 incubator.
(§6) b) The cells in the culture dish were blown evenly with a 5 mL pipette, and 500 μL of the cells were pipetted out to be inoculated into a new […] culture dish and cultured in a 37° C. and 5% CO2 incubator.
(§7) a) The compound to be tested (10 mM stock solution) was diluted with 100% DMSO to 1 mM, and diluted with a culture solution in a 24-well plate to prepare of a working solution of 2 μM concentration.
(§8) b) The 2 μM working solution was diluted with a triple dilution method to obtain working solutions with approximate concentrations of 2 μM, 600 nM, 200 nM, 60 nM, and 20 nM.
(§9) a) The cells at the logarithmic growth phase were centrifuged at 1000 rpm for 4 minutes, resuspended with a medium (containing 10% serum and 50 ng/mL EGF), and counted.
(§10) b) The cells were inoculated into a 96-well plate with a cell density of 4000 cells/well, and placed in a 37° C. and 5% CO2 incubator for culture for 12 hours.
(§11) a) The prepared compound was added to a 96-well plate, with 100 μL per well. The final concentrations were 1 μM, 300 nM, 100 nM, 30 nM, 10 nM, and 0 nM, and the final concentration of DMSO was 0.2%. A medium served as a blank control.
(§12) b) The cells were placed in 37° C. and 5% CO2 incubator for culture for 72 hours.
(§13) (5) Cell Viability Testing
(§14) a) The 96-well cell culture plate was taken out, and 20 μL of a CCK-8 reagent (Cell Counting Kit-8, Topscience, Catalog No. C0005) was added in the dark.
(§15) b) Mixing well was conducted on a horizontal shaking table at a room temperature at 100 rpm for 5 minutes.
(§16) c) The culture plate was placed in a 37° C. constant-temperature incubator for incubation.
(§17) The data was analyzed using GraphPad Prism 8.0 software to obtain a fitted curve of activity of the compounds. The IC50 of the compounds was fitted from nonlinear regression equation.

The test system of data set [2] is BaF3-EGFR^del19/T790M/C797S cells. The data set is described as above. The following applies: Ba/F3 EGFR-Del19/T790M/C797S; cell proliferation, 72 hours; read-out: BaF3-EGFR^del19 /T790M/C797S (IC50 nM). In kind it is cell-based. As for the experimental part:
as §1, §2, §3, §4, §5, §6, §7, §8, §9, §10, §11, §12, §13, §14, §15, §16, §17

In data set [3] the test system is BaF3-EGFR^L858R/T790M/C797S cells. The description is as above. The following applies: Ba/F3 EGFR-L858R, 72 hours. In kind it is cell-based.
From the text: BaF3 cell proliferation inhibition experiment: The compounds of the present invention have excellent inhibitory activity against the proliferation of BaF3-EGFR^L858R/T790M/C797S cells
as §1, §2, §3, §4, §5, §6, §7, §8, §9, §10, §11, §12, §13, §14, §15, §16
d) Starting from the addition of the CCK-8, the absorbance at 450 nm was read using the TECAN microplate reader at 1 hour, 2 hours, and 3 hours, respectively.
as §17

A further data set has as its system A431 cells. In words: A431 cell proliferation inhibition (SRB). In kind it is cell-based. The following applies: Homo sapiens, A-431, wild-type EGFR, 72 hours. As for the experimental part:
A431 cell proliferation inhibition: The compounds of the present invention have good selectivity to wild-type EGFR
as §2, §3, §4, §5, §6, §7, §8, §9, §10, §11, §12, §13
a) The cell supernatant was discarded, rinsed once with 1×PBS, and fixed with 10% trichloroacetic acid for 1 hour. The trichloroacetic acid was discarded, excess trichloroacetic acid was washed off with tap water, and the 96-well plate was dried in a 60° C. oven.
b) 70 μL of an SRB stain was added to each well of the dry 96-well plate for staining at a room temperature for 30 minutes. Excess SRB stain was washed off with 1% glacial acetic acid, and the 96-well plate was dried in a 60° C. oven.
c) SRB was dissolved with 100 μL of 10 mM Tris-base solution. The absorbance was detected at 540 nm ultraviolet absorption using the microplate reader. The data was analyzed.
as §17

Data set [4] can be described thus: Detection of oral plasma exposure in rats. In kind it is in vivo. Conditions: rat, SD rats, p.o. 10 mg/kg. As for the experimental part: Detection of oral plasma exposure in rats: The compounds of the present invention have good oral in-vivo exposure in rats
After a single dose of 10 mg/kg oral administration of the compound to be tested in SD rats, blood samples were collected at different time points.
Standard curve and quality control sample preparation processing: The mixed reserve solution of the compound to be tested was taken and diluted with 50% methanol water into standard working solutions containing respective compounds with concentrations of 20, 40, 100, 200, 400, 1000, 2000, 4000, 10000, and 20000 ng/mL, as well as 60, 600, and 16000 ng/mL quality control working solutions. […] of a blank matrix was taken. […] of the standard curve working solutions and the quality control working solutions were added to prepare standard curves containing respective compounds with concentrations of 1.00, 2.00, 5.00, 10.00, 20.00, 50.00, 100.00, 200.00, 500.00, and 1000.00 ng/mL, as well as quality control samples with concentrations of 3.00, 30.00, and 800.00 ng/mL, respectively. 400 μL of acetonitrile (containing internal standard Verpmil of 2 ng/mL) was added. After vortex oscillation at 700 rcf for 10 minutes, centrifugation was conducted at 3300 rcf at 4° C. for 10 minutes. The supernatant was taken for LC-MS/MS analysis.
Unknown sample preparation processing: 50 μL of the sample to be tested was taken. 400 μL of acetonitrile (containing internal standard Verpmil of 2 ng/mL) was added. After vortex oscillation at 700 rcf for 10 minutes, centrifugation was conducted at 3300 rcf and 4° C. for 10 minutes. The supernatant was taken for LC-MS/MS analysis.

Molecules are shown by their SMILES.

Chain of EGFR^L858R/T790M/C797S kinase (P00533 25-1210 T790M/C797S/L858R): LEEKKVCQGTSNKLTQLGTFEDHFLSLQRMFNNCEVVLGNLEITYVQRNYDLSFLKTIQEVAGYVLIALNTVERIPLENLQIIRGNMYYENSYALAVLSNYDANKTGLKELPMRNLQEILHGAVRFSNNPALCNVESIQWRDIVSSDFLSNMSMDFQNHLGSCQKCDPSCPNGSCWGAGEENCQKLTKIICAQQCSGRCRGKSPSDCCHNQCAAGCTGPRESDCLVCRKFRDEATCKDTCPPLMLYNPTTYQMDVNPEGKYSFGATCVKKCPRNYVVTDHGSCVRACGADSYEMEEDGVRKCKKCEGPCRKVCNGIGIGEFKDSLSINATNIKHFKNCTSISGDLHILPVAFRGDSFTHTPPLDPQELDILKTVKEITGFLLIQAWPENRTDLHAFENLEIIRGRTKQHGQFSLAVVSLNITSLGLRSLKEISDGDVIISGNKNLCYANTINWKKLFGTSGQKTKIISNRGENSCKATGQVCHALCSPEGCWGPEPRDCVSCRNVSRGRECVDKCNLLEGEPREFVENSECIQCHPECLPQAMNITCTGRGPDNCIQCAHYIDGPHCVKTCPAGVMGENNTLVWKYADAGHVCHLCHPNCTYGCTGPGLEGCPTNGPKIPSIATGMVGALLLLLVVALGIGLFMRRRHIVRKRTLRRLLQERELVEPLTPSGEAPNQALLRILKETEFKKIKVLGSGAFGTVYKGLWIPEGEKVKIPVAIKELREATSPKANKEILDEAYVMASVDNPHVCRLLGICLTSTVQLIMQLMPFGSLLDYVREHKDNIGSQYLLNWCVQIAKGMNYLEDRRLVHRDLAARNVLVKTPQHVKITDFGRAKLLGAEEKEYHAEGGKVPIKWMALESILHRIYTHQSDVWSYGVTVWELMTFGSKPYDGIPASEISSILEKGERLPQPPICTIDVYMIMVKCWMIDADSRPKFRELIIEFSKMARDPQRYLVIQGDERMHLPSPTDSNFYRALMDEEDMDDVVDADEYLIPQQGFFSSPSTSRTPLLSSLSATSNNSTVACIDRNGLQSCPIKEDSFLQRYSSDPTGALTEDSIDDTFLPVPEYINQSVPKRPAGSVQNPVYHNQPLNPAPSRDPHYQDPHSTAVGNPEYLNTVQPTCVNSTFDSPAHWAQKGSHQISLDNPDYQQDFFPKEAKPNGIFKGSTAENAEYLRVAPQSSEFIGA

`CCc1cc(Nc2ncc(Cl)c(Nc3cc(C)c(C)cc3P(C)(C)=O)n2)c(OC)cc1N1CCC(N2C[C@@H](C)N(C)[C@@H](C)C2)CC1` [Compound 50, (2-((5-chloro-2-((5-ethyl-2-methoxy-4-(4-((3S,5R)-3,4,5-trimethylpiperazin-1-yl)piperidin-1-yl)phenyl)amino)pyrimidin-4-yl)amino)-4,5-dimethylphenyl)dimethylphosphine oxide]: the IC50 in data set [1] is 0.0707 nM; in the data set with BaF3-EGFR^WT cells it was 942 nM; in data set [2], 186 nM.

As for `CCc1cc(Nc2ncc(Cl)c(Nc3ccc(C)c(C)c3P(C)(C)=O)n2)c(OC)cc1N1CCC2(CCN(C)CC2)CC1` [Compound 55, (6-((5-Chloro-2-((5-ethyl-2-methoxy-4-(9-methyl-3,9-diazaspiro[5.5]undecan-3-yl)phenyl)amino)pyrimidin-4-yl)amino)-2,3-dimethylphenyl)dimethylphosphine oxide], the IC50 in data set [1] came out at 0.297 nM; in data set [3], 48.6 nM; with A431 cells, 700 nM.

For the molecule `CCc1cc(Nc2ncc(Cl)c(Nc3cc(Cl)c(Cl)cc3P(C)(C)=O)n2)c(OC)cc1N1CCC2(CC1)CC(N(C)C)C2` [Compound 7, (4,5-Dichloro-2-((5-chloro-2-((4-(2-(dimethylamino)-7-azaspiro[3. 5]nonan-7-yl)-5-ethyl-2-methoxyphenyl)amino)pyrimidin-4-yl)amino)phenyl)dimethylphosphine oxide], the IC50 in data set [1] is 0.98 nM; in data set [3], 49.9 nM; in the data set with A431 cells, over 500 nM.

On to `COc1cc(N2CCC3(CC2)CC(N(C)C)C3)c(Cl)cc1Nc1ncc(Cl)c(Nc2ccc(C)c(C)c2P(C)(C)=O)n1` [Compound 21, (6-((5-chloro-2-((5-chloro-4-(2-(dimethylamino)-7-azaspiro[3.5]nonan-7-yl)-2-methoxyphenyl)amino)pyrimidin-4-yl)amino)-2,3-dimethylphenyl)dimethylphosphine oxide], for which the IC50 in data set [1] was 0.65 nM; in data set [3] it was 33.3 nM; with A431 cells, over 500 nM.

Consider `COc1cc(N2CCC3(CC2)CC(N(C)C)C3)c(F)cc1Nc1ncc(Cl)c(Nc2cc(C)c(C)cc2P(C)(C)=O)n1` [Compound 16, (2-((5-chloro-2-((4-(2-(dimethylamino)-7-azaspiro[3.5]nonan-7-yl)-5-fluoro-2-methoxypheny 1)amino)pyrimidin-4-yl)amino)-4,5-dimethylphenyl)dimethylphosphine oxide], for which the IC50 in data set [1] is 12 nM; in data set [3] it was 35.7 nM; with A431 cells it was over 500 nM.

`COc1cc(N2CC3(CCN(C)CC3)C2)c(C)cc1Nc1ncc(Cl)c(Nc2ccc(C)c(C)c2P(C)(C)=O)n1` [Compound 32]: the IC50 in data set [1] is 0.92 nM; in data set [3] it was 55.4 nM; in the data set on A431 cells, 962 nM.

Regarding `COc1cc(N2CCC(N3CCN(C)CC3)CC2)c(C)cc1Nc1ncc(Cl)c(Nc2cc(C)c(C)cc2P(C)(C)=O)n1` [Compound 12, (2-((5-Chloro-2-((2-methoxy-5-methyl-4-(4-(4-methylpiperazin-1-yl)piperidin-1-yl)phenyl)amino)pyrimidin-4-yl)amino)-4,5-dimethylphenyl)dimethylphosphine oxide], the IC50 is 5.3 nM in data set [1], 44.4 nM in data set [3] and over 500 nM with A431 cells. In data set [4], this molecule showed a Cmax of 1.19 µg/mL.

For `CCc1cc(Nc2ncc(Cl)c(Nc3cc(C(F)(F)F)ccc3P(C)(C)=O)n2)c(OC)cc1N1CCC2(CC1)CC(N(C)C)C2` [Compound 8, (2-((5-Chloro-2-((4-(2-(dimethylamino)-7-azaspiro[3.5]nonan-7-yl)-5-ethyl-2-methoxypheny 1)amino)pyrimidin-4-yl)amino)-4-(trifluoromethyl)phenyl)dimethylphosphine oxide], the IC50 was 29 nM in data set [1], 261 nM in data set [3] and over 1000 nM with A431 cells.

In general, Cmax refers to the maximum level reached in the sampled fluid or tissue.
